Test results from patent US11384060B2, “Amide compounds and use thereof” (ALPHALA CO., LTD., priority 2017, dated 2022).
Like-named read-outs stand apart in the source and are kept apart here.

Experiments:
[1] = target: T1, glucagon receptor (GCGR) (Homo sapiens, UniProt P47871); assay: I125-glucagon binding assay (competition, GCGR membrane fractions)
T1 construct: expressed in transfected cells; host or cells: CHO-K1 cells overexpressing GCGR (membrane fractions)
Procedure, shortened: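 Competition of 0.0625 nM (final) I^125-glucagon for 30 min at 25° C, after 5 min compound preincubation, using 7.5 μg/well GCGR-overexpressing CHO-K1 membranes in 50 mM Tris pH 7.4, 0.5% BSA. Filtration onto PEI-coated GF/B, micro-beta counting, and non-linear regression gave IC50.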

[2] = target: T2, glucagon receptor (GCGR) overexpressed CHO-K1 cells or human primary hepatocytes (Homo sapiens, UniProt P47871); assay: Glucagon cAMP inhibition assay (Cisbio cAMP Dynamic 2 HTRF); type: cell-based
T2 construct: expressed in transfected cells; host or cells: GCGR overexpressed CHO-K1 cells or human primary hepatocytes (endogenous receptor)
T2 sequence (P47871 26-477): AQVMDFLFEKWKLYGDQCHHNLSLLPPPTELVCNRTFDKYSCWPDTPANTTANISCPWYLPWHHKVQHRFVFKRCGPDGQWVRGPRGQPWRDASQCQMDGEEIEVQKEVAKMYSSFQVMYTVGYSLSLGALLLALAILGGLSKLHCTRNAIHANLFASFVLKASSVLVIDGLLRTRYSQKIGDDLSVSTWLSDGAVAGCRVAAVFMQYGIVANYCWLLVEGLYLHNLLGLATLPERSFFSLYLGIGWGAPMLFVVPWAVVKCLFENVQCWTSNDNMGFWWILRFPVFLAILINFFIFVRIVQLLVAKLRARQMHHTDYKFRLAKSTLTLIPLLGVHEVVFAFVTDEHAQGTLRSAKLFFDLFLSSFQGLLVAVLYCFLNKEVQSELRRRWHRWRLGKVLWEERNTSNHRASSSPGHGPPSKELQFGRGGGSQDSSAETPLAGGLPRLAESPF
Procedure, shortened: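 HTRF read-out of glucagon-induced cAMP, with IC50 from non-linear regression. Cells (GCGR CHO-K1 or human primary hepatocytes) in HBSS/0.1% BSA/800 nM IBMX took compound dilutions for 30 min (final DMSO 1%), then EC50-level glucagon for 30 min at room temperature, then a 60 min lysis/detection step.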

[3] = competition with I125-glucagon 0.0625 nM, membrane fractions of GCGR overexpressed CHO-K1 cells
[4] = inhibition of glucagon (EC50 concentration) induced cAMP production

T1 sequence (P47871 26-477): as above

| Compound | IC50 [1, 3] [µM] | IC50 cAMP [2, 4] [µM] | IC50 [1] [µM] | IC50 cAMP [2] [µM] | further results |
| --- | --- | --- | --- | --- | --- |
| CC(C)[C@@H](COc1ccc(-c2cc3ccccc3o2)c(Cl)c1)Nc1ccc(C(=O)NC[C@@H](O)C(=O)O)cc1 [Compound 3-6, (R)-3-(4-(((S)-1-(4-(benzofuran-2-yl)-3-chlorophenoxy)-3-methylbutan-2-yl)amino)benzamido)-2-hydroxypropanoic Acid] | 0.184 | 9.291 | – | – | – |
| CCOC(=O)CCNC(=O)c1ccc(N[C@H](C(=O)Nc2ccc(-c3cc4ccccc4o3)cc2)C(C)C)cc1 [Compound 23-32, Ethyl (S)-3-(4-((1-((4-(benzofuran-2-yl)phenyl)amino)-3-methyl-1-oxobutan-2-yl)amino)benzamido)propanoate] | – | – | 5.18 | 0.0928 | – |
| CC(C)[C@H](Nc1ccc(C(=O)NCCC(=O)O)cc1)C(=O)Nc1ccc(-c2cc3ccccc3o2)cc1 [Compound 23-33, (S)-3-(4-((1-((4-(benzofuran-2-yl)phenyl)amino)-3-methyl-1-oxobutan-2-yl)amino)benzamido)propanoic Acid] | – | – | 1.01 | 1.633 | – |
| CC[C@H](C)[C@@H](COc1ccc(-c2ccc(C(F)(F)F)cc2Cl)cn1)Nc1ccc(C(=O)NCCC(=O)O)cc1 [Compound 15-13, 3-(4-(((2S,3S)-1-((5-(2-chloro-4-(trifluoromethyl)phenyl)pyridin-2-yl)oxy)-3-methylpentan-2-yl)amino)benzamido)propanoic Acid] | – | – | 0.098 | 0.123 | – |
| CCOC(=O)CCNC(=O)c1ccc(N[C@@H](COc2ccc(-c3nc4ccccc4o3)cc2)C(C)C)cc1 [Compound 1-53] | 24.5 | 0.09 | – | – | – |
| CC(C)[C@H](COc1ccc(-c2nc3ccccc3o2)cc1)Nc1ccc(C(=O)NCCC(=O)O)cc1 [Compound 1-54, (R)-3-(4-((1-(4-(benzo[d]oxazol-2-yl)phenoxy)-3-methylbutan-2-yl)amino)benzamido)propanoic Acid] | 0.095 | 0.213 | – | – | – |
| CC[C@H](C)[C@@H](COc1ccc(-c2cc3ccccc3o2)c(C)n1)Nc1ccc(C(=O)NCCC(=O)O)cc1 [Compound 18-4, 3-(4-(((2S,3S)-1-((5-(benzofuran-2-yl)-6-methylpyridin-2-yl)oxy)-3-methylpentan-2-yl)amino)benzamido)propanoic Acid] | – | – | 0.203 | 0.151 | – |
| CC(C)C[C@@H](COc1cc(F)c(-c2ccc(C(F)(F)F)cc2)c(F)c1)Nc1ccc(C(=O)NCCC(=O)O)cc1 [Compound 7-6, (S)-3-(4-((1-((2,6-difluoro-4′-(trifluoromethyl)-[1,1′-biphenyl]-4-yl)oxy)-4-methylpentan-2-yl)amino)benzamido)propanoic Acid] | 0.144 | 0.371 | – | – | – |
| CC(C)[C@@H](COc1ccc(-c2ccc(C(F)(F)F)cn2)cc1)Nc1ccc(C(=O)NCCC(=O)O)cc1 [Compound 1-24, (S)-3-(4-((3-methyl-1-(4-(5-(trifluoromethyl)pyridin-2-yl)phenoxy)butan-2-yl)amino)benzamido)propanoic Acid] | 0.134 | 0.1875 | – | – | – |
| CCCC[C@@H](COc1ccc(-c2ccc(C(F)(F)F)cc2Cl)cc1)Nc1ccc(C(=O)NCc2nnn[nH]2)cc1 [Compound 1-20, (S)—N-((1H-tetrazol-5-yl)methyl)-4-((1-((2′-chloro-4′-(trifluoromethyl)-[1,1′-biphenyl]-4-yl)oxy)hexan-2-yl)amino)benzamide] | 0.096 | 0.524 | – | – | – |
| CC(C)(C)c1ccc(-c2nnc([C@H](Cc3ccc(-c4cc5ccccc5o4)cc3)Nc3ccc(C(=O)NCCC(=O)O)cc3)o2)cc1 [Compound 20-1, (S)-3-(4-((2-(4-(benzofuran-2-yl)phenyl)-1-(5-(4-(tert-butyl)phenyl)-1,3,4-oxadiazol-2-yl)ethyl)amino)benzamido)propanoic Acid] | – | – | 0.201 | 1.403 | – |
| CC(C)C[C@@H](COc1cc(F)c(-c2ccc(Cl)cc2Cl)c(F)c1)Nc1ccc(C(=O)NCCC(=O)O)cc1 [Compound 7-8, (S)-3-(4-((1-((2′,4′-dichloro-2,6-difluoro-[1,1′-biphenyl]-4-yl)oxy)-4-methylpentan-2-yl)amino)benzamido)propanoic Acid] | 0.049 | 0.329 | – | – | – |
| CC[C@H](C)[C@@H](COc1ccc(-c2ccc(C(F)(F)F)cc2F)c(OC)c1)Nc1ccc(C(=O)NCCC(=O)O)cc1 [Compound 13-4] | 0.068 | 0.131 | – | – | – |
| CC(C)[C@@H](COc1ccc(-c2nc3ccccc3s2)cc1)Nc1ccc(C(=O)NCCC(=O)O)cc1 [Compound 1-32, (S)-3-(4-((1-(4-(benzo[d]thiazol-2-yl)phenoxy)-3-methylbutan-2-yl)amino)benzamido)propanoic Acid] | 0.057 | 0.152 | – | – | – |
| CCCC[C@@H](COc1cnc(-c2ccc(C(F)(F)F)cc2Cl)nc1)Nc1ccc(C(=O)NCCC(=O)O)cc1 [Compound 12-5, (S)-3-(4-((1-((2-(2-chloro-4-(trifluoromethyl)phenyl)pyrimidin-5-yl)oxy)hexan-2-yl)amino)benzamido)propanoic Acid] | 0.451 | 2.357 | – | – | – |
| CC[C@H](C)[C@@H](COc1ccc(-c2ccc(F)cc2F)nn1)Nc1ccc(C(=O)NCCC(=O)O)cc1 [Compound 17-6, 3-(4-(((2S,3S)-1-((6-(2,4-difluorophenyl)pyridazin-3-yl)oxy)-3-methylpentan-2-yl)amino)benzamido)propanoic Acid] | 0.445 | 10.157 | – | – | – |
| CC[C@H](C)[C@@H](COc1cc(C)c(-c2cc3ccccc3o2)c(C)c1)Nc1ccc(C(=O)NCCC(=O)O)cc1 [Compound 2-7, 3-(4-(((2S,3S)-1-(4-(benzofuran-2-yl)-3,5-dimethylphenoxy)-3-methylpentan-2-yl)amino)benzamido)propanoic Acid] | 0.158 | 0.468 | – | – | – |
| CC(C)C[C@@H](COc1ccc(-c2ccc(C(F)(F)F)cc2Cl)cn1)Nc1ccc(C(=O)NCCC(=O)O)cc1 [Compound 15-10, (S)-3-(4-((1-((5-(2-chloro-4-(trifluoromethyl)phenyl)pyridin-2-yl)oxy)-4-methylpentan-2-yl)amino)benzamido)propanoic Acid] | – | – | 0.08 | 0.1984 | – |

Further lines, with some results ahead:

| IC50 [1, 3] [µM] | IC50 cAMP [2, 4] [µM] | IC50 [1] [µM] | IC50 cAMP [2] [µM] | Compound | further results |
| --- | --- | --- | --- | --- | --- |
| – | – | – | 0.1671 | CCOC(=O)CCNC(=O)c1ccc(N[C@H](Cc2ccc(-c3ccc(Cl)cc3Cl)cc2)C(=O)Nc2ccc(C(F)(F)F)cc2)cc1 [Compound 24-17, Ethyl (R)-3-(4-((3-(2′,4′-dichloro-[1,1′-biphenyl]-4-yl)-1-oxo-1-((4-(trifluoromethyl)phenyl)amino)propan-2-yl)amino)benzamido)propanoate] | IC50 ([1]; uM): > 30 µM |
| 0.127 | 0.465 | – | – | CCCC[C@@H](COc1ccc(-c2ccc(C(F)(F)F)cc2)nc1)Nc1ccc(C(=O)NCCC(=O)O)cc1 [Compound 10-9, (S)-3-(4-((1-((6-(4-(trifluoromethyl)phenyl)pyridin-3-yl)oxy)hexan-2-yl)amino)benzamido)propanoic Acid] | – |
| 0.888 | 3.868 | – | – | CCCC[C@@H](COc1cnc(-c2ccc(Cl)cc2Cl)nc1)Nc1ccc(C(=O)NCCC(=O)O)cc1 [Compound 12-7, (S)-3-(4-((1-((2-(2,4-dichlorophenyl)pyrimidin-5-yl)oxy)hexan-2-yl)amino)benzamido)propanoic Acid] | – |
| 0.148 | 0.0398 | – | – | O=C(O)CCNC(=O)c1ccc(NC(COc2ccc(-c3cc4ccccc4o3)cc2)c2ccccc2)cc1 (stereo not drawn) [Compound 1-23, 3-(4-((2-(4-(benzofuran-2-yl)phenoxy)-1-phenylethyl)amino)benzamido) propanoic Acid] | – |
| – | – | 7.4 | – | O=C(O)CCNC(=O)c1ccc(N[C@@H](Cc2ccccc2)C(=O)Nc2ccc(C(F)(F)F)cc2)cc1 [Compound 24-6, (S)-3-(4-((1-oxo-3-phenyl-1-((4-(trifluoromethyl)phenyl)amino)propan-2-yl)amino)benzamido)propanoic Acid] | IC50 cAMP ([2]; uM): >10 µM |
| – | – | 0.216 | 0.196 | CC(C)[C@@H](COc1ccc(-c2ccc(Cl)cc2Cl)cn1)Nc1ccc(C(=O)NCCC(=O)O)cc1 [Compound 15-17, (S)-3-(4-((1-((5-(2,4-dichlorophenyl)pyridin-2-yl)oxy)-3-methylbutan-2-yl)amino)benzamido)propanoic Acid] | – |
| – | – | 13.6 | >30 | CCCC[C@@H](COc1nnc(-c2ccc(C(F)(F)F)cc2F)o1)Nc1ccc(C(=O)NCCC(=O)O)cc1 [Compound 22-3, (S)-3-(4-((1-((5-(2-fluoro-4-(trifluoromethyl)phenyl)-1,3,4-oxadiazol-2-yl)oxy)hexan-2-yl)amino)benzamido)propanoic Acid] | – |
| 0.501 | 19.185 | – | – | CC(C)C[C@@H](COc1cnc(-c2ccc(C(F)(F)F)cc2Cl)nc1)Nc1ccc(C(=O)NCCC(=O)O)cc1 [Compound 12-9, (S)-3-(4-((1-((2-(2-chloro-4-(trifluoromethyl)phenyl)pyrimidin-5-yl)oxy)-4-methylpentan-2-yl)amino)benzamido)propanoic Acid] | – |
| 0.079 | 0.0778 | – | – | COc1cc(OC[C@@H](Nc2ccc(C(=O)NCCC(=O)O)cc2)C(C)C)ccc1-c1ccc(C(F)(F)F)cc1F [Compound 13-8, (S)-3-(4-((1-((2′-fluoro-2-methoxy-4′-(trifluoromethyl)-[1,1′-biphenyl]-4-yl)oxy)-3-methylbutan-2-yl)amino)benzamido)propanoic Acid] | – |
